Test results as given in patent US9815796B2 (Merck Sharp & Dohme Corp., priority 2013, dated 2017).
Like-named read-outs stand apart in the source and are kept apart here.

Assays:
[1] = target: Rhesus PDE2A3 (Macaca mulatta, UniProt B3VTJ2); assay: PDE2 fluorescence polarization (IMAP FP) inhibition assay, rhesus enzyme; type: biochemical, rhesus macaque
Method in brief: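 IMAP FP (mP from parallel and perpendicular fluorescence against substrate-only control) was read ≥1 h after adding binding reagent. The preceding 60 min room-temperature reaction contained FAM-cAMP (50 nM) and cGMP (1 uM) in pH 7.2 Tris buffer with MgCl2 and DTT. Enzyme was supernatant of sonicated AD293 cells expressing rhesus PDE2A3; compounds were 3-fold titrated, DMSO 1% final.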

[2] = target: human PDE2A1 (Homo sapiens (Human), UniProt O00408); assay: IMAP FP PDE selectivity panel, human PDE2A1; type: biochemical
Sequence of human PDE2A1 (O00408 other isoform, or with tags, fused parts or gaps): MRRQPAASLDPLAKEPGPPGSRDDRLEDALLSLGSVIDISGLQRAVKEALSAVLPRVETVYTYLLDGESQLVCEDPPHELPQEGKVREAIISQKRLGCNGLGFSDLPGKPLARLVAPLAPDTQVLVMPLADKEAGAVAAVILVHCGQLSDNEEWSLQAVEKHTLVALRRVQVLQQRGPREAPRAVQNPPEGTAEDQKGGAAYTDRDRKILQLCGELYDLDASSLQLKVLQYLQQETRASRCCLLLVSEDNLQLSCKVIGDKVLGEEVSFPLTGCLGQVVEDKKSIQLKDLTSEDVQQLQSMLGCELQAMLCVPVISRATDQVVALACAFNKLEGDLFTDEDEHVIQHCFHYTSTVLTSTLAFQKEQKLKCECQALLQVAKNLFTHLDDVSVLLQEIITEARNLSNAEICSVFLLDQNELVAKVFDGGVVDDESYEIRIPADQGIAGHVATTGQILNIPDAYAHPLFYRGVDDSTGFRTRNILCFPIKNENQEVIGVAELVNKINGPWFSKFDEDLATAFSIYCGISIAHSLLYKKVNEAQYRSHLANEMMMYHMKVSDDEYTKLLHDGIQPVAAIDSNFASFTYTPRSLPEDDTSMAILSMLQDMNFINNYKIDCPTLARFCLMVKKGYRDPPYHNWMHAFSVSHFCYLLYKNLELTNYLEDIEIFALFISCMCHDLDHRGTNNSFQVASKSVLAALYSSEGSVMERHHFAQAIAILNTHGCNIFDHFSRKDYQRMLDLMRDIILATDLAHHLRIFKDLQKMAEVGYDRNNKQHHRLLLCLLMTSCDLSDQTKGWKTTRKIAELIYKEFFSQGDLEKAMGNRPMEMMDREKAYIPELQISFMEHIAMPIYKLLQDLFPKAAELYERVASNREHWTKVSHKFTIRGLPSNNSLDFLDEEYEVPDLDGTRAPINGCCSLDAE
Method in brief: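 IMAP FP format: substrate 50 nM FAM-cAMP plus 1000 nM cGMP, enzyme (insect-cell GST-tagged human PDE2A1) at ~20% conversion, 60 min reaction at room temperature. Apparent inhibition constants calculated from parallel/perpendicular fluorescence with KM 10,000 nM.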

[3] = Rhesus PDE2, Lab B, read-out: Rhesus PDE2 Ki (nM) - Lab B
[4] = Human PDE2, Lab B, read-out: Human PDE2 Ki (nM) - Lab B
[5] = Rhesus PDE2, Lab A, read-out: Rhesus PDE2 Ki (nM) - Lab A
[6] = Human PDE2, Lab A, read-out: Human PDE2 Ki (nM) - Lab A

Sequence of Rhesus PDE2A3 (B3VTJ2 1-941): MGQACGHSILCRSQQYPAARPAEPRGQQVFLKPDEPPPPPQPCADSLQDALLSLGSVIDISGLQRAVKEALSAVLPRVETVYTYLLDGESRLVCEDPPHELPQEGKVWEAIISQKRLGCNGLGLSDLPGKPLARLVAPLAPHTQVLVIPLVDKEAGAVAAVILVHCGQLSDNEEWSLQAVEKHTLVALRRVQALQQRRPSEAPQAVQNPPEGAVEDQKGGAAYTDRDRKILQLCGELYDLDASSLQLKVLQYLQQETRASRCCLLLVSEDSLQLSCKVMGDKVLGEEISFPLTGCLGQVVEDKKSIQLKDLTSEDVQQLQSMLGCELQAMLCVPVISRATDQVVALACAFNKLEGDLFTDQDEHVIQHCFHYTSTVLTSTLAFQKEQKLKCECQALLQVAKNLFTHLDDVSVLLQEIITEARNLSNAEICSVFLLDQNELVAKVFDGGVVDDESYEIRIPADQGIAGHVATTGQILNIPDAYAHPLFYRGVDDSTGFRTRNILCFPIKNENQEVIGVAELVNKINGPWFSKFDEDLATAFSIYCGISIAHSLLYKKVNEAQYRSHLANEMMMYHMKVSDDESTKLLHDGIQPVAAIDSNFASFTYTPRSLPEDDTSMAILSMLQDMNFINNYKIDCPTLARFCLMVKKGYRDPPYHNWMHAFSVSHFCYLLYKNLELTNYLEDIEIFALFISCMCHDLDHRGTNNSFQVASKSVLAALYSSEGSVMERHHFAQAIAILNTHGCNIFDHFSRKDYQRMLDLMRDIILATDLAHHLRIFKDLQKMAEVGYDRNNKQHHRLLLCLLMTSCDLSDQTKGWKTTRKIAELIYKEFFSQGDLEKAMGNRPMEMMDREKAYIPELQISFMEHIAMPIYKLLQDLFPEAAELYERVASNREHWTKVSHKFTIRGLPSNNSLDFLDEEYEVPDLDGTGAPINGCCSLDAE

SMILES | Ki [1, 3] [nM] | Ki [2, 4] [nM] | Ki [1, 5] [nM] | Ki [2, 6] [nM]
COc1ccc(Cc2nc(C(=O)N[C@@H](c3ccc(OC(F)(F)F)c(F)c3)C(C)(C)C)cc(=O)[nH]2)cc1 [Example 464, N-{(1R)-1-[3-fluoro-4-(trifluoromethoxy)phenyl]-2,2-dimethylpropyl}-2-(4-methoxybenzyl)-6-oxo-1,6-dihydropyrimidine-4-carboxamide] | 0.6 | 0.69 | – | –
O=C(N[C@@H](c1ccc(SC(F)(F)F)c(F)c1)C1CC1)c1cc(=O)[nH]c(-c2ncccn2)n1 [Example 452, N-[(R)-cyclopropyl{3-fluoro-4-[(trifluoromethyl)sulfanyl]phenyl}meth-yl]-6-oxo-1,6-dihydro-2,2′-bipyrimidine-4-carboxamide] | 9.8 | 9.3 | – | –
CC[C@@H](NC(=O)c1cc(=O)[nH]c(C)n1)c1ccc(S(F)(F)(F)(F)F)cc1 [Example 51, 2-methyl-6-oxo-N-{(1R)-1-[4-(pentafluoro-λ^6-sulfanyl)phenyl]propyl}-1,6-dihydropyrimidine-4-carboxamide] | 18 | 20 | 18 | ~6.1
CC(C)(C)[C@@H](NC(=O)c1cc(=O)[nH]c(-c2ccccc2)n1)c1ccc(OC(F)F)cc1 [Example 449, N-{(1R)-1-[4-(difluoromethoxy)phenyl]-2,2-dimethylpropyl}-6-oxo-2-phenyl-1,6-dihydropyrimidine-4-carboxamide] | 2.6 | 1.8 | – | –
O=C(N[C@@H](c1ccc(OC(F)(F)F)c(F)c1)C1CC1)c1cc(=O)[nH]c(-c2ncccn2)n1 [Example 93, N-{(R)-cyclopropyl[3-fluoro-4-(trifluoromethoxy)phenyl]methyl}-6-oxo-1,6-dihydro-2,2′-bipyrimidine-4-carboxamide] | – | – | 35 | 9.6
Cc1nc(C(=O)N[C@@H](c2ccc(SC(F)(F)F)c(F)c2)C(C)C)cc(=O)[nH]1 [Example 53, N-[(1R)-1-{3-fluoro-4-[(trifluoromethyl)sulfanyl]phenyl}-2-methylpropyl]-2-methyl-6-oxo-1,6-dihydropyrimidine-4-carboxamide] | – | – | 3.6 | 2.8
CC(C)[C@@H](NC(=O)c1cc(=O)[nH]c(-c2ccccc2)n1)c1ccc(SC(F)(F)F)cc1 [Example 419, N-[(1R)-2-methyl-1-{4-[(trifluoromethyl)sulfanyl]phenyl}pro-pyl]-6-oxo-2-phenyl-1,6-dihydropyrimidine-4-carboxamide] | 3.3 | 2.9 | – | –
CC(NC(=O)c1cc(=O)[nH]c(C2CC2)n1)c1ccc(C2CC2)cc1 (stereo not drawn) [Example 195, 2-cyclopropyl-N-[1-(4-cyclopropylphenyl)ethyl]-6-oxo-1,6-dihydropyrimidine-4-carboxamide] | – | – | 33 | 18
COc1ccc(C(C)(C)c2nc(C(=O)N[C@@H](c3ccc(SC(F)(F)F)cc3)C3CC3)cc(=O)[nH]2)cc1 [Example 500, N-[(R)-cyclopropyl{4-[(trifluoromethyl)sulfanyl]phenyl}methyl]-2-[1-(4-methoxyphenyl)-1-methylethyl]-6-oxo-1,6-dihydropyrimidine-4-carboxamide] | 79 | 74 | – | –
COc1ccc(Cc2nc(C(=O)N[C@@H](c3ccc(C(F)(F)F)c(F)c3)C3CC3)cc(=O)[nH]2)cc1F [Example 522, N-{(R)-cyclopropyl[3-fluoro-4-(trifluoromethyl)phenyl]methyl}-2-(3-fluoro-4-methoxybenzyl)-6-oxo-1,6-dihydropyrimidine-4-carboxamide] | 2.9 | 2.6 | – | –
Cc1nc(C(=O)NC(c2ccc(SC(F)(F)F)c(F)c2)C2(C)CC2)cc(=O)[nH]1 (single isomer, unassigned) [Example 702, (R)- or (S)-N-((3-fluoro-4-((trifluoromethyl)thio)phenyl)(1-methylcyclopropyl)methyl)-2-methyl-6-oxo-1,6-dihydropyrimidine-4-carboxamide] | 8.7 | 7.2 | – | –
Cc1nc(C(=O)N[C@H](C)c2ccc(-c3ccccc3F)cc2)cc(=O)[nH]1 [Example 324, N-[(1R)-1-(2′-fluorobiphenyl-4-yl)ethyl]-2-methyl-6-oxo-1,6-dihydropyrimidine-4-carboxamide] | – | – | 131 | 138
COc1ccc(Cc2nc(C(=O)N[C@@H](c3ccc(C(F)(F)F)c(F)c3)C(C)C)cc(=O)[nH]2)cc1F [Example 514, 2-(3-fluoro-4-methoxybenzyl)-N-{(1R)-1-[3-fluoro-4-(trifluoromethyl)phenyl]-2-methylpropyl}-6-oxo-1,6-dihydropyrimidine-4-carboxamide] | 2.2 | 1.8 | – | –
Cc1nc(C(=O)N[C@@H](c2ccc(C(F)(F)F)c(F)c2)C2(C)CC2)cc(=O)[nH]1 [Example 613, N-[(R)-[3-fluoro-4-(trifluoromethyl)phenyl](1-methylcyclopropyl)methyl]-2-methyl-6-oxo-1,6-dihydropyrimidine-4-carboxamide] | 13 | 12 | – | –

Further lines, results first:

Ki [1, 3] [nM] | Ki [2, 4] [nM] | Ki [1, 5] [nM] | Ki [2, 6] [nM] | SMILES
– | – | 942 | 540 | O=C(NC1(c2ccc(OC(F)(F)F)cc2)CCC1)c1cc(=O)[nH]c(-c2ncccn2)n1 [Example 290, 6-oxo-N-(1-(4-(trifluoromethoxy)phenyl)cyclobutyl)-1,6-dihydro-[2,2′-bipyrimidine]-4-carboxamide]
– | 71 | 42 | 40 | Cc1nc(C(=O)NC(C)(C)c2ccc(C(F)(F)F)cc2)cc(=O)[nH]1 [Example 272, 2-methyl-N-{1-methyl-1-[4-(trifluoromethyl)phenyl]ethyl}-6-oxo-1,6-dihydropyrimidine-4-carboxamide]
– | – | 70 | 16 | COCc1nc(C(=O)N[C@@H](c2ccc(OC(F)(F)F)cc2)C2CC2)cc(=O)[nH]1 [Example 116, N-{(R)-cyclopropyl[4-(trifluoromethoxy)phenyl]methyl}-2-(methoxymethyl)-6-oxo-1,6-dihydropyrimidine-4-carboxamide]
– | – | 65 | 72 | Cc1nc(C(=O)N[C@H](C)c2ccc(C(F)(F)F)c(C)c2)cc(=O)[nH]1 [Example 46, 2-methyl-N-{(1R)-1-[3-methyl-4-(trifluoromethyl)phenyl]ethyl}-6-oxo-1,6-dihydropyrimidine-4-carboxamide]
1.8 | 1.7 | – | – | CC[C@@H](NC(=O)c1cc(=O)[nH]c(Cc2ccc(OC)c(F)c2)n1)c1ccc(SC(F)(F)F)cc1 [Example 518, 2-(3-fluoro-4-methoxybenzyl)-6-oxo-N-[(1R)-1-{4-[(trifluoromethyl)sulfanyl]phenyl}propyl]-1,6-dihydropyrimidine-4-carboxamide]
9.3 | 9.8 | 6.4 | – | CC[C@@H](NC(=O)c1cc(=O)[nH]c(-c2ncccn2)n1)c1ccc(OC(F)(F)F)c(F)c1 [Example 89, N-{(1R)-1-[3-fluoro-4-(trifluoromethoxy)phenyl]propyl}-6-oxo-1,6-dihydro-2,2′-bipyrimidine-4-carboxamide]
– | – | 18 | 12 | O=C(NC1(c2ccc(C(F)(F)F)cc2)CCC1)c1cc(=O)[nH]c(-c2ccccc2)n1 [Example 278, 6-oxo-2-phenyl-N-{1-[4-(trifluoromethyl)phenyl]cyclobutyl}-1,6-dihydropyrimidine-4-carboxamide]
– | – | 19 | 9.3 | Cc1nc(C(=O)N[C@@H](c2ccc(OC(F)(F)F)c(F)c2)C2CC2)cc(=O)[nH]1 [Example 40, N-{(R)-cyclopropyl[3-fluoro-4-(trifluoromethoxy)phenyl]methyl}-2-methyl-6-oxo-1,6-dihydropyrimidine-4-carboxamide]
– | – | 141 | 118 | O=C(NCc1ccc(C2CC2)cc1)c1cc(=O)[nH]c(-c2ccccc2)n1 [Example 182, N-(4-cyclopropylbenzyl)-6-oxo-2-phenyl-1,6-dihydropyrimidine-4-carboxamide]
– | – | 6.6 | 5.6 | O=C(NC1(c2ccc(OC(F)(F)F)cc2)CC1)c1cc(=O)[nH]c(-c2ccccc2)n1 [Example 277, 6-oxo-2-phenyl-N-{1-[4-(trifluoromethoxy)phenyl]cyclopropyl}-1,6-dihydropyrimidine-4-carboxamide]
3.8 | 3.6 | – | – | COc1ccc(Cc2nc(C(=O)N[C@@H](c3ccc(SC(F)(F)F)c(F)c3)C3CC3)cc(=O)[nH]2)cc1F [Example 520, N-[(R)-cyclopropyl{3-fluoro-4-[(trifluoromethyl)sulfanyl]phenyl}methyl]-2-(3-fluoro-4-methoxybenzyl)-6-oxo-1,6-dihydropyrimidine-4-carboxamide]
29 | – | 25 | ~6.2 | CC[C@@H](NC(=O)c1cc(=O)[nH]c(COC)n1)c1ccc(SC(F)(F)F)cc1 [Example 121, 2-(methoxymethyl)-6-oxo-N-[(1R)-1-{4-[(trifluoromethyl)sulfanyl]phenyl}propyl]-1,6-dihydropyrimidine-4-carboxamide]
– | – | 60 | 62 | CC(C)(NC(=O)c1cc(=O)[nH]c(-c2ccccc2)n1)c1ccc(SC(F)(F)F)cc1 [Example 186, N-(1-methyl-1-{4-[(trifluoromethyl)sulfanyl]phenyl}ethyl)-6-oxo-2-phenyl-1,6-dihydropyrimidine-4-carboxamide]
61 | 64 | 48 | ~11 | COCc1nc(C(=O)N[C@H](C)c2ccc(OC(F)(F)F)c(F)c2)cc(=O)[nH]1 [Example 126, N-{(1R)-1-[3-fluoro-4-(trifluoromethoxy)phenyl]-ethyl}-2-(methoxymethyl)-6-oxo-1,6-dihydropyrimidine-4-carboxamide]
